Source: US12594268B2, “Methods of treating Fabry disease in patients having a mutation in the GLA gene” (Amicus Therapeutics, Inc., priority 2018, dated 2026)

Target: T1, α-Gal A mutant form K391E (Homo sapiens, UniProt P06280, K391E)
T1 construct: expressed in transfected cells; host or cells: HEK-293
T1 sequence (P06280 32-429 K391E): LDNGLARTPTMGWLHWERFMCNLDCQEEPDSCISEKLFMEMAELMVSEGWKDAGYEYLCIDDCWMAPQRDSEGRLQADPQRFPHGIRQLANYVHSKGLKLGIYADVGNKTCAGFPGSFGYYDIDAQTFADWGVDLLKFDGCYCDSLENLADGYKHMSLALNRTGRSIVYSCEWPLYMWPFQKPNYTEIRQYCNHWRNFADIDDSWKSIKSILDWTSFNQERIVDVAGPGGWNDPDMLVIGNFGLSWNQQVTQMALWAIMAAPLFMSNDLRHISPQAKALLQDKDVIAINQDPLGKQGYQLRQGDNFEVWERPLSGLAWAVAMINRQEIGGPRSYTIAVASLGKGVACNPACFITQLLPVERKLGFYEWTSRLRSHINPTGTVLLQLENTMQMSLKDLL
Test: α-Gal A activity in lysates of transfected HEK-293 cells, K391E
Assay type: cell-based
Procedure: Baseline and 10 μM migalastat α-Gal A activity: Differences in the α-Gal A activity between lysates incubated in the absence and presence of 10 μM migalastat were determined using a one-tailed, Mann Whitney U test; an increase at 10 μM migalastat with a p<0.05 was considered significant.
10 μM migalastat α-Gal A activity (% WT)=(α-Gal A activity in mutant transfected cell lysates incubated with 10 μM migalastat÷α-Gal A activity in wild-type transfected cell lysates without migalastat)*100.
Absolute increase (% WT)=is the 10 μM migalastat α-Gal A activity (% WT) minus the baseline α-Gal A activity (% WT).
Relative increase is the 10 μM migalastat α-Gal A activity in mutant transfected cell lysates÷baseline α-Gal A activity in mutant transfected cell lysates incubated without migalastat.

[1] = HEK-293 lysates, 10 μM migalastat, 5 days, mean ± SEM

Absolute increase (% WT) (10 μM migalastat minus baseline): 20.0 % WT
Relative increase (10 μM migalastat ÷ baseline activity): 2.03
10 μM migalastat α-Gal A activity [1]: 15979 ± 1367 nmol/mg/h
10 μM migalastat α-Gal A activity (% WT) [1]: 40.4 ± 2.9 % WT
SMILES: OC[C@H]1NC[C@H](O)[C@@H](O)[C@H]1O [migalastat, (2R,3S,4R,5S)-2-(hydroxymethyl) piperdine-3,4,5-triol]
